Laboratory results taken from PMC4936186 (Journal of medicinal chemistry, 2015).
Starred links: 1 amine or outer side, 2 acyl side, 3 side chain; linkers in the order of their positions; H or OH if unused. Positions of bridges follow the written chain, without caps; N, C: chain ends. Non-standard residues stand in square brackets, D forms with d. Residues, ends and D or L forms follow the SMILES beside them. X1 = O=C([C@@H]1C[C@H](n2cc(C3=CC=C[CH]3[Fe][CH]3C=CC=C3)nn2)CN1[*:1])[*:2]

Legend:
HIV-1 gp120 = details: for Activity in SPR competition binding to gp120 (in words): dual receptor site (sCD4 and 17b) inhibition
trypsin = details: 37 °C, 5-hour incubation

In the case of `CC[C@H](C)[C@H](N)C(=O)N[C@H]1CCC(=O)NCCCC[C@@H](C(N)=O)NC(=O)[C@H](Cc2c[nH]c3ccccc23)NC(=O)[C@@H]2C[C@H](n3cc(C4=CC=C[CH]4[Fe][CH]4C=CC=C4)nn3)CN2C(=O)[C@H]([C@@H](C)CC)NC(=O)[C@H](CC(N)=O)NC1=O` (stereo partly shown) [Compound 4] (H-IENI[X1]WK-NH2; lactam 2-7; N-terminus and C-terminus assumed), the “Activity in SPR competition binding to gp120 (in words)” value (HIV-1 gp120) is reported as “enhanced dual receptor site antagonizing activities compared to their non-ferrocene analogues”.

In the case of `CC[C@H](C)[C@@H]1NC(=O)[C@H](CC(N)=O)NC(=O)[C@@H](N)CC(=O)NCCCC[C@@H](C(N)=O)NC(=O)[C@H](Cc2c[nH]c3ccccc23)NC(=O)[C@@H]2C[C@H](n3cc(C4=CC=C[CH]4[Fe][CH]4C=CC=C4)nn3)CN2C1=O` (stereo partly shown) [Compound 9] (H-DNI[X1]WK-NH2; lactam 1-6; C-terminus assumed), the “Activity in SPR competition binding to gp120 (in words)” value (HIV-1 gp120) is reported as “enhanced dual receptor site antagonizing activities compared to their non-ferrocene analogues”.

With `CC[C@H](C)[C@@H]1NC(=O)[C@H](CC(N)=O)NC(=O)[C@@H](N)CC(=O)NCCCC[C@@H](C(N)=O)NC(=O)[C@H](Cc2c[nH]c3ccccc23)NC(=O)[C@@H]2C[C@H](n3cc(CCc4ccccc4)nn3)CN2C1=O` [Compound 7] the “Stability to trypsin (in words)” value (trypsin) was “completely resistant”, the “Stability to chymotrypsin (in words)” value (chymotrypsin; 37 °C, 5-hour incubation) was “completely resistant” and the “Stability to chymotrypsin (in words), 30 min” value (chymotrypsin; 37 °C, 30 minute incubation) was “almost unchanged”. The “Intactness after chymotrypsin digestion (in words), 40 h” value (chymotrypsin; 40 h incubation, HPLC and ESI-MS) was “remained intact” and the “Enhancement of activity of macrocycle 7 vs 2” value (HIV-1 gp120; SPR, shorter green linker (Asp instead of Glu)) was “almost two-fold enhanced activity”.
